We go through 22 compounds from patent US10631539B2, “Fungicidal compositions” (SYNGENTA PARTICIPATIONS AG, priority 2015, dated 2020).

What all share (type): in vivo
For experiment [1], the system named is Puccinia recondita f. sp. tritici. The experiment in a line: Puccinia recondita f. sp. tritici / wheat / leaf disc preventative (brown rust). As to conditions: foliar, wheat leaf disks cv. Kanzler, inoculated 1 day after application, compared to untreated control, read-out: disease control. Here is the method: Puccinia recondita f. sp. tritici/wheat/leaf disc preventative (brown rust)
Wheat leaf segments cv. Kanzler were placed on agar in multiwell plates (24-well format) and sprayed with the formulated test compound or mixture composition diluted in water. The leaf disks were inoculated with a spore suspension of the fungus 1 day after application. The inoculated leaf segments were incubated at 19° C. and 75% rh under a light regime of 12 h light/12 h darkness in a climate cabinet and the activity of a compound or mixture composition was assessed as percent disease control compared to untreated when an appropriate level of disease damage appears in untreated check leaf segments (7-9 days after application).

Experiment [2] deals with Phakopsora pachyrhizi (triazole tolerant soybean rust strain). In words: Phakopsora pachyrhizi on soybean, preventive treatment. As to conditions: foliar, 264 h, 1 day preventive, leaf discs evaluated 11 days after application, compared to untreated control, read-out: disease control. On the procedure: Phakopsora pachyrhizi on Soybean, Preventive Treatment
The compound or mixture composition activity was tested under 1 day preventive conditions. Soybean plants with a fully enfolded first trifoliate leaf were sprayed with a track sprayer and 50 l/ha spray volume with the test compounds or mixture composition, either solo or in tankmix as shown in the table below.
1 day after application leaf discs were cut from the first trifoliate leaf and placed in multiwell plates on water-agar. 5 leaf discs per treatment where infested with spores of a triazole tolerant soybean rust strain. The multiwell plates where sealed and placed in an incubator 48 h in darkness and 12 h light/dark cycle afterwards. Rust infestation on leaf discs was evaluated visually 11 days after application and average activity calculated in relation to disease severity on untreated check leaf discs.

Experiment [3] relates to Blumeria graminis f. Sp. Tritici (Erysiphe qraminis f. Sp. Tritici). The experiment in a line: Blumeria graminis f. sp. tritici / wheat / leaf disc preventative (powdery mildew on wheat). As to conditions: foliar, wheat leaf disks cv. Kanzler, inoculated 1 day after application, compared to untreated control, read-out: disease control. On the procedure: Blumeria graminis f. Sp. Tritici (Erysiphe qraminis f. Sp. Tritici)/Wheat/Leaf Disc Preventative (Powdery Mildew on Wheat)
Wheat leaf segments cv. Kanzler were placed on agar in a multiwell plate (24-well format) and sprayed with the formulated test compound or mixture composition diluted in water. The leaf disks were inoculated by shaking powdery mildew infected plants above the test plates 1 day after application. The inoculated leaf disks were incubated at 20° C. and 60% rh under a light regime of 24 h darkness followed by 12 h light/12 h darkness in a climate chamber and the activity of a compound or mixture composition was assessed as percent disease control compared to untreated when an appropriate level of disease damage appears on untreated check leaf segments (6-8 days after application).

The subject of experiment [4] is Puccinia recondita f. sp. tritici. In words: Puccinia recondita f. sp. tritici / wheat / leaf disc curative (brown rust). As to conditions: foliar, 24 h, wheat leaf disks cv. Kanzler, applied 1 day after inoculation (curative), compared to untreated control, read-out: disease control. Here is the method:
Puccinia recondita f. Sp. Tritici/Wheat/Leaf Disc Curative (Brown Rust)
Wheat leaf segments cv. Kanzler are placed on agar in multiwell plates (24-well format). The leaf segments are inoculated with a spore suspension of the fungus. Plates were stored in darkness at 19° C. and 75% rh. The formulated test compound or mixture composition diluted in water was applied 1 day after inoculation. The leaf segments were incubated at 19° C. and 75% rh under a light regime of 12 h light/12 h darkness in a climate cabinet and the activity of a compound or mixture composition was assessed as percent disease control compared to untreated when an appropriate level of disease damage appears in untreated check leaf segments (6-8 days after application).

As for `CCCOC[C@H](C)Oc1nc(C)c(/N=C/N(C)CC)cc1Br` [Compound 67.002, N′-[5-bromo-2-methyl-6-[(1S)-1-methyl-2-propoxy-ethoxy]-3-pyridyl]-N-ethyl-N-methyl-formamidine], the pest or weed control at 200 ppm in experiment [1], in experiment [2], in experiment [3] and in experiment [4] was ≥ 80% each time.

Turning to `CCCOC[C@@H](C)Oc1nc(C)c(/N=C/N(C)CC)cc1Br` [Compound 67.003, N′-[5-bromo-2-methyl-6-[(1R)-1-methyl-2-propoxy-ethoxy]-3-pyridyl]-N-ethyl-N-methyl-formamidine], the pest or weed control at 200 ppm in experiment [4] was ≥ 80%.

Take `CCCOCC(C)Oc1nc(C)c(/N=C/N(C)CC)cc1C#N` (stereo not shown) [Compound 67.007, N′-[5-cyano-2-methyl-6-(1-methyl-2-propoxy-ethoxy)-3-pyridyl]-N-ethyl-N-methyl-formamidine]: in experiment [4], the pest or weed control at 200 ppm is ≥ 80%.

`CCCOCC(C)Oc1nc(C)c(/N=C/N(C)CC)cc1C(F)F` (stereo not shown) [Compound 67.009, N′-[5-(difluoromethyl)-2-methyl-6-(1-methyl-2-propoxy-ethoxy)-3-pyridyl]-N-ethyl-N-methyl-formamidine]: the pest or weed control at 200 ppm in experiment [4] is ≥ 80%.

On to `CCCOCC(C)Oc1nc(C)c(/N=C/N(C)CC)cc1OC(F)F` (stereo not shown) [Compound 67.010], for which the pest or weed control at 200 ppm in experiment [4] was ≥ 80%.

For `CCCOCC(C)Oc1nc(C)c(/N=C/N(C)CC)cc1C` (stereo not shown) [Compound 67.011, N′-[2,5-dimethyl-6-(1-methyl-2-propoxy-ethoxy)-3-pyridyl]-N-ethyl-N-methyl-formamidine], the pest or weed control at 200 ppm in experiment [4] was ≥ 80%.

Regarding `CCCOCC(C)Oc1ccc(/N=C/N(C)CC)c(C)n1` (stereo not shown) [Compound 67.012], the pest or weed control at 200 ppm in experiment [4] is ≥ 80%.

Take `CCCOCC(C)Oc1nc(C)c(/N=C/N(C)CC)cc1Br` (stereo not shown) [Compound 67.013, N′-[5-bromo-2-methyl-6-(1-methyl-2-propoxy-ethoxy)-3-pyridyl]-N-ethyl-N-methyl-formamidine]: the pest or weed control at 200 ppm in experiment [4] is ≥ 80%.

Take `C=CCOCC(C)Oc1nc(C)c(/N=C/N(C)CC)cc1Cl` (stereo not shown) [Compound 67.014, N′-[6-(2-allyloxy-1-methyl-ethoxy)-5-chloro-2-methyl-3-pyridyl]-N-ethyl-N-methyl-formamidine]: the pest or weed control at 200 ppm in experiment [4] is ≥ 80%.

For `CCCOCC(C)Oc1nc(C)c(/N=C/N(C)CC)cc1Cl` (stereo not shown) [Compound 67.015, N′-[5-chloro-2-methyl-6-(1-methyl-2-propoxy-ethoxy)-3-pyridyl]-N-ethyl-N-methyl-formamidine], in experiment [4], the pest or weed control at 200 ppm was ≥ 80%.

For `C=CCOCC(COC)Oc1nc(C)c(/N=C/N(C)CC)cc1Br` (stereo not shown) [Compound 67.016], in experiment [4], the pest or weed control at 200 ppm was ≥ 80%.

`C=CCOCC(C)Oc1nc(C)c(/N=C/N(C)CC)cc1C#N` (stereo not shown) [Compound 67.017]: in experiment [4], the pest or weed control at 200 ppm is ≥ 80%.

For `CCCOCC(C)Oc1nc(C)c(/N=C/N(C)C(C)C)cc1Br` (stereo not shown) [Compound 67.018, N′-[5-bromo-2-methyl-6-(1-methyl-2-propoxy-ethoxy)-3-pyridyl]-N-isopropyl-N-methyl-formamidine], the pest or weed control at 200 ppm in experiment [4] was ≥ 80%.

`CCN(C)/C=N/c1cc(C#N)c(OC(C)COc2cccc(C(F)(F)F)c2)nc1C` (stereo not shown) [Compound 67.020]: in experiment [4], the pest or weed control at 200 ppm was ≥ 80%.

Turning to `CCN(C)/C=N/c1cc(C#N)c(OC(C)COc2ccc(Cl)cc2)nc1C` (stereo not shown) [Compound 67.021], in experiment [4], the pest or weed control at 200 ppm was ≥ 80%.

On to `CCN(C)/C=N/c1cc(C#N)c(OC(C)COc2ccccc2)nc1C` (stereo not shown) [Compound 67.022], for which the pest or weed control at 200 ppm in experiment [4] is ≥ 80%.

As for `CCN(C)/C=N/c1cc(Cl)c(OC(C)COc2cccc(C(F)(F)F)c2)nc1C` (stereo not shown) [Compound 67.023], the pest or weed control at 200 ppm in experiment [4] was ≥ 80%.

As to `CCN(C)/C=N/c1cc(Cl)c(OC(C)COc2ccc(Cl)cc2)nc1C` (stereo not shown) [Compound 67.024], the pest or weed control at 200 ppm in experiment [4] is ≥ 80%.

Consider `CCN(C)/C=N/c1cc(Cl)c(OC(C)COc2ccccc2)nc1C` (stereo not shown) [Compound 67.025], for which, in experiment [4], the pest or weed control at 200 ppm is ≥ 80%.

Turning to `CCN(C)/C=N/c1cc(Br)c(OC(C)COc2ccc(Cl)cc2)nc1C` (stereo not shown) [Compound 67.026], the pest or weed control at 200 ppm in experiment [4] was ≥ 80%.

With `CCN(C)/C=N/c1cc(Br)c(OC(C)COc2cccc(C(F)(F)F)c2)nc1C` (stereo not shown) [Compound 67.027], the pest or weed control at 200 ppm in experiment [4] was ≥ 80%.

For `CCN(C)/C=N/c1cc(Br)c(OC(C)COc2ccccc2)nc1C` (stereo not shown) [Compound 67.028], the pest or weed control at 200 ppm in experiment [4] is ≥ 80%.
